Test results reported in publication PMC12505902, “Inhibitors of trehalose-6-phosphate synthase activity in fungal pathogens compromise thermal tolerance pathways” (mBio, 2025).

Tested on: trehalose content of C. neoformans
Assay: Trehalose measurement (colorimetric glucose assay after trehalase)
Format: cell-based
Details: 37°C, sublethal dose (0.5 mM 4456dh), P < 0.05; dose-dependent
Experimental: Fig 5 4456dh treatment results in reduced trehalose accumulation and a decrease in Tps1-dependent virulence factors. Trehalose accumulation measurements for C. albicans (A) and C. neoformans (B) cultured at indicated temperatures in the absence or presence of 0.5 mM 4456dh. Trehalose was measured using a colorimetric glucose assay after treatment of cultures with trehalase. Statistical comparisons were done with a one-way analysis of variance (ANOVA) analysis followed by a post hoc Tukey’s test. Error bars represent SE. (C) C. albicans WT strain SC5314 cells were treated with 0.5 mM, 1.0 mM, and 5 mM 4456dh. […] Cells were harvested, stained in India Ink, and analyzed using differential interference contrast imaging. […]
124 technical replicates. Growth, as determined by a reading of absorbance at 600 nm, was
125 normalized to untreated controls and was corrected for the absorbance of 4456dh in the YPD […]
129 overnight cultures was quantified by measuring the OD600 and corrected for the background
130 absorbance of the medium. Antifungal potency for 4456dh was assessed by minimum inhibitory […]
137 replicates. Growth, as determined by a reading of absorbance at 600 nm, was normalized to
138 untreated controls and was corrected for the absorbance of 4456dh in the YPD medium. […]
139 minimum inhibitory concentration causing 80% growth reduction, or MIC80, was determined based […]

Cn1cc(-c2csc(NC(=O)Cc3ccccn3)n2)cn1 [Compound 4456dh]
change in trehalose: significant decrease in trehalose
